The structures appear in SMILES notation. ≈ marks a conversion by molar mass, not a printed value.

One test relates to Mannheimia haemolytica MH 6357 (M7/2, reference strain, cattle infection strain). Briefly: MIC, broth-microdilution (CLSI VET01-A4), strain MH 6357. The class given is cell-based. As to conditions: Mannheimia haemolytica strain MH 6357, broth-microdilution; unit assumed. How it is done:
(§1) For example, representative compounds were tested against ***, Mannheimia haemolytica and Pasteurella multocida, using the conventional broth-dilution assay.
(§2) The Minimum inhibitory concentrations (MIC) of compounds according to the invention for a number of veterinary bacterial pathogens were determined by the broth-microdilution method according to CLSI document VET01-A4.
(§3) Microdilution trays containing a doubling dilution series of the test compound were used for the tests. The MIC results were interpreted according to the CLSI documents VET01-S3. The lowest concentration of compound at which no visible growth (i.e. no turbidity) detected by the unaided eye was recorded as the MIC.
`O=C(N[C@@H](CO)C(=O)NO)c1ccc(C#Cc2ccc(CN3CCN(c4ccccn4)CC3)cc2)cc1` [Compound 82]: the MIC MH 6357 was determined as 1.6 mg/L (≈ 3.2 µM).
Still for that read-out and setting: under `Cc1ccc(CNCc2ccc(C#Cc3ccc(C(=O)N[C@@H](CO)C(=O)NO)cc3)cc2)cc1C` [Compound 91] stands 6.3 mg/L (≈ 13.4 µM); under `O=C(N[C@@H](CO)C(=O)NO)c1ccc(C#Cc2ccc(CN3CCN(c4ccccc4)CC3)cc2)cc1` [Compound 81], 3.1 mg/L (≈ 6.22 µM); under `CC(C)[C@H](NC(=O)c1ccc(C#Cc2ccc(CNC3CC3)cc2)cc1)C(=O)NO` [Compound 92], 0.8 mg/L (≈ 1.97 µM).

Another test relates to Mannheimia haemolytica MH 6374 (ATCC 33396, reference strain). Kind of test: MIC, broth-microdilution (CLSI VET01-A4), strain MH 6374. The class given is cell-based. The conditions noted are these: Mannheimia haemolytica strain MH 6374, broth-microdilution; unit assumed. How it is done: as §1, §2, §3
In general terms: In broth dilution the organism is exposed to a series of concentrations in liquid medium.
As for `O=C(N[C@@H](CO)C(=O)NO)c1ccc(C#Cc2ccc(CN3CCN(c4ccccn4)CC3)cc2)cc1` [Compound 82], the MIC MH 6374 was 0.8 mg/L (≈ 1.6 µM).
`Cc1ccc(CNCc2ccc(C#Cc3ccc(C(=O)N[C@@H](CO)C(=O)NO)cc3)cc2)cc1C` [Compound 91] returned an MIC MH 6374 of 3.1 mg/L (≈ 6.57 µM).
On the same count and under the same terms, for `O=C(N[C@@H](CO)C(=O)NO)c1ccc(C#Cc2ccc(CN3CCN(c4ccccc4)CC3)cc2)cc1` [Compound 81] the value was 3.1 mg/L (≈ 6.22 µM); for `CC(C)[C@H](NC(=O)c1ccc(C#Cc2ccc(CNC3CC3)cc2)cc1)C(=O)NO` [Compound 92], not above 0.1 mg/L.

The subject of the next test is Mannheimia haemolytica MH 10720 (154, BRD field isolate). Kind of test: MIC, broth-microdilution (CLSI VET01-A4), strain MH 10720. It counts as cell-based. As to conditions: Mannheimia haemolytica strain MH 10720, broth-microdilution; unit assumed. The method, then:
as §1, §2, §3
With `O=C(N[C@@H](CO)C(=O)NO)c1ccc(C#Cc2ccc(CN3CCN(c4ccccn4)CC3)cc2)cc1` [Compound 82], the MIC MH 10720 is 0.4 mg/L (≈ 0.801 µM).
Still for that read-out and setting: for `Cc1ccc(CNCc2ccc(C#Cc3ccc(C(=O)N[C@@H](CO)C(=O)NO)cc3)cc2)cc1C` [Compound 91] the value was 1.6 mg/L (≈ 3.39 µM); for `O=C(N[C@@H](CO)C(=O)NO)c1ccc(C#Cc2ccc(CN3CCN(c4ccccc4)CC3)cc2)cc1` [Compound 81], 0.8 mg/L (≈ 1.6 µM); for `CC(C)[C@H](NC(=O)c1ccc(C#Cc2ccc(CNC3CC3)cc2)cc1)C(=O)NO` [Compound 92], not above 0.1 mg/L.

The test system of a further test is Mannheimia haemolytica MH 12587 (1071, BRD field isolate, macrolide-resistance: erm+, E+). Kind of test: MIC, broth-microdilution (CLSI VET01-A4), strain MH 12587. The class given is cell-based. The conditions noted are these: Mannheimia haemolytica strain MH 12587, broth-microdilution; unit assumed. The method, then:
as §1, §2, §3
`O=C(N[C@@H](CO)C(=O)NO)c1ccc(C#Cc2ccc(CN3CCN(c4ccccn4)CC3)cc2)cc1` [Compound 82]: the MIC MH 12587 turned out to be 3.1 mg/L (≈ 6.21 µM).
Turning to `Cc1ccc(CNCc2ccc(C#Cc3ccc(C(=O)N[C@@H](CO)C(=O)NO)cc3)cc2)cc1C` [Compound 91], the MIC MH 12587 was found to be 12.5 mg/L (≈ 26.5 µM).
Same read-out and setting: for `O=C(N[C@@H](CO)C(=O)NO)c1ccc(C#Cc2ccc(CN3CCN(c4ccccc4)CC3)cc2)cc1` [Compound 81] the value was 25 mg/L (≈ 50.1 µM).
Regarding `CC(C)[C@H](NC(=O)c1ccc(C#Cc2ccc(CNC3CC3)cc2)cc1)C(=O)NO` [Compound 92], the MIC MH 12587 turned out to be 0.2 mg/L (≈ 0.493 µM).

Another test concerns Mannheimia haemolytica MH 13065 (XB0446-6003.9, BRD field isolate). Kind of test: MIC, broth-microdilution (CLSI VET01-A4), strain MH 13065. The class given is cell-based. As to conditions: Mannheimia haemolytica strain MH 13065, broth-microdilution; unit assumed. How it is done:
as §1, §2, §3
The compound `O=C(N[C@@H](CO)C(=O)NO)c1ccc(C#Cc2ccc(CN3CCN(c4ccccn4)CC3)cc2)cc1` [Compound 82] yielded an MIC MH 13065 of 6.3 mg/L (≈ 12.6 µM).
Same read-out and setting: for `Cc1ccc(CNCc2ccc(C#Cc3ccc(C(=O)N[C@@H](CO)C(=O)NO)cc3)cc2)cc1C` [Compound 91] the value was 6.3 mg/L (≈ 13.4 µM); for `O=C(N[C@@H](CO)C(=O)NO)c1ccc(C#Cc2ccc(CN3CCN(c4ccccc4)CC3)cc2)cc1` [Compound 81], 3.1 mg/L (≈ 6.22 µM); for `CC(C)[C@H](NC(=O)c1ccc(C#Cc2ccc(CNC3CC3)cc2)cc1)C(=O)NO` [Compound 92], not above 0.1 mg/L.

A further test deals with Mannheimia haemolytica MH 13093 (XB0472-6014.1, BRD field isolate). Briefly: MIC, broth-microdilution (CLSI VET01-A4), strain MH 13093. The class given is cell-based. The conditions noted are these: Mannheimia haemolytica strain MH 13093, broth-microdilution; unit assumed. How it is done: as §1, §2, §3
As for `O=C(N[C@@H](CO)C(=O)NO)c1ccc(C#Cc2ccc(CN3CCN(c4ccccn4)CC3)cc2)cc1` [Compound 82], the MIC MH 13093 stood at 3.1 mg/L (≈ 6.21 µM).
The compound `Cc1ccc(CNCc2ccc(C#Cc3ccc(C(=O)N[C@@H](CO)C(=O)NO)cc3)cc2)cc1C` [Compound 91] displayed an MIC MH 13093 of 12.5 mg/L (≈ 26.5 µM).
The same measure, in the same setting: under `O=C(N[C@@H](CO)C(=O)NO)c1ccc(C#Cc2ccc(CN3CCN(c4ccccc4)CC3)cc2)cc1` [Compound 81] stands 6.3 mg/L (≈ 12.6 µM); under `CC(C)[C@H](NC(=O)c1ccc(C#Cc2ccc(CNC3CC3)cc2)cc1)C(=O)NO` [Compound 92], 0.2 mg/L (≈ 0.493 µM).

The subject of another test is Pasteurella multocida PM 6267 (P 2225 (L386), reference strain, mouse infection strain). Briefly: MIC, broth-microdilution (CLSI VET01-A4), strain PM 6267. It counts as cell-based. As to conditions: Pasteurella multocida strain PM 6267, broth-microdilution; unit assumed. How it is done:
as §1, §2, §3
For the compound `O=C(N[C@@H](CO)C(=O)NO)c1ccc(C#Cc2ccc(CN3CCN(c4ccccn4)CC3)cc2)cc1` [Compound 82], the MIC PM 6267 was not above 0.1 mg/L.
`Cc1ccc(CNCc2ccc(C#Cc3ccc(C(=O)N[C@@H](CO)C(=O)NO)cc3)cc2)cc1C` [Compound 91] displayed an MIC PM 6267 of 0.4 mg/L (≈ 0.848 µM).
For `O=C(N[C@@H](CO)C(=O)NO)c1ccc(C#Cc2ccc(CN3CCN(c4ccccc4)CC3)cc2)cc1` [Compound 81], the MIC PM 6267 is not above 0.1 mg/L.
`CC(C)[C@H](NC(=O)c1ccc(C#Cc2ccc(CNC3CC3)cc2)cc1)C(=O)NO` [Compound 92]: the MIC PM 6267 was not above 0.1 mg/L.

The next test deals with Pasteurella multocida PM 10775 (080130003051, BRD field isolate). Briefly: MIC, broth-microdilution (CLSI VET01-A4), strain PM 10775. It counts as cell-based. As to conditions: Pasteurella multocida strain PM 10775, broth-microdilution; unit assumed. How it is done: as §1, §2, §3
The compound `O=C(N[C@@H](CO)C(=O)NO)c1ccc(C#Cc2ccc(CN3CCN(c4ccccn4)CC3)cc2)cc1` [Compound 82] showed an MIC PM 10775 not above 0.1 mg/L.
Same read-out and setting: under `Cc1ccc(CNCc2ccc(C#Cc3ccc(C(=O)N[C@@H](CO)C(=O)NO)cc3)cc2)cc1C` [Compound 91] stands not above 0.1 mg/L; under `O=C(N[C@@H](CO)C(=O)NO)c1ccc(C#Cc2ccc(CN3CCN(c4ccccc4)CC3)cc2)cc1` [Compound 81], not above 0.1 mg/L.
Compound `CC(C)[C@H](NC(=O)c1ccc(C#Cc2ccc(CNC3CC3)cc2)cc1)C(=O)NO` [Compound 92] had an MIC PM 10775 not above 0.1 mg/L.

The subject of a further test is Pasteurella multocida PM 12080 (IV102277-0093, BRD field isolate). Briefly: MIC, broth-microdilution (CLSI VET01-A4), strain PM 12080. The class given is cell-based. The conditions noted are these: Pasteurella multocida strain PM 12080, broth-microdilution; unit assumed. How it is done:
as §1, §2, §3
In turn, `O=C(N[C@@H](CO)C(=O)NO)c1ccc(C#Cc2ccc(CN3CCN(c4ccccn4)CC3)cc2)cc1` [Compound 82] registered an MIC PM 12080 of 0.8 mg/L (≈ 1.6 µM).
With `Cc1ccc(CNCc2ccc(C#Cc3ccc(C(=O)N[C@@H](CO)C(=O)NO)cc3)cc2)cc1C` [Compound 91], the MIC PM 12080 came to 1.6 mg/L (≈ 3.39 µM).
With `O=C(N[C@@H](CO)C(=O)NO)c1ccc(C#Cc2ccc(CN3CCN(c4ccccc4)CC3)cc2)cc1` [Compound 81], the MIC PM 12080 is 0.8 mg/L (≈ 1.6 µM).
On the same count and under the same terms, under `CC(C)[C@H](NC(=O)c1ccc(C#Cc2ccc(CNC3CC3)cc2)cc1)C(=O)NO` [Compound 92] stands not above 0.1 mg/L.

Values taken from patent US11034650B2, “Compounds useful for treating a Mannheimia haemolytica or Histophilus somni infection” (Intervet Inc., priority 2016, dated 2021).
